Test results taken from patent US20230072421A1, “TARGETED RADIOPHARMACEUTICALS FOR THE DIAGNOSIS AND TREATMENT OF PROSTATE CANCER” (Bayer AS, priority 2019, published 2023).

Tests used:
[1] = Biodistribution study in LNCaP tumor-bearing mice (Th227 counted in organs); type: in vivo, SCID mice
In short: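 Th227 in excised, weighed organs was counted with a Germanium detector at predetermined time points (n=3 mice each). This followed one i.v. injection of radiolabelled compound into testosterone-supplemented SCID mice carrying LNCaP xenografts in Matrigel, dosed once tumors reached ~50 mm^2.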

[2] = test system: LNCaP human prostate cancer cells; experiment: LNCaP xenograft efficacy study (T/C tumor area); type: in vivo, SCID mice
In short: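 SCID mice with testosterone pellet bearing s.c. flank LNCaP xenografts (5×10^6 cells in Matrigel) were treated i.v. with a defined radioactive dose once tumors reached 35-50 mm^2 (n=10/group). Tumor area (caliper, longest diameter × perpendicular) measured 2-3× weekly; T/C ratio calculated from tumor areas when vehicle group closed.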

22Rv1 cells = experiment: Cell proliferation assay (CellTiter-Glo, 5-day exposure), 22Rv1; type: cell-based; details: 22Rv1, 1000 cells/well, Th-227 labelled at 375 kBq/nmol, mean of 1 to 6 experiments
In short: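 Seeding was 4000 cells/well for VCaP and 1000 cells/well for 22Rv1, C4-2 and LNCaP, followed by overnight culture at 37° C and 5% CO2. Cells were exposed to Thorium-227-labeled PSMA ligands for 5 days, and viability was measured by CellTiter-Glo luminescence both at treatment start and at the end.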

[3] = Example II, 750 kBq/kg weekly for 5 weeks, day 120

O=C([O-])CN1CCN(CC(=O)[O-])CCN(CC(=O)NCC2CCC(C(=O)NC(Cc3ccc4ccccc4c3)C(=O)NCCCCC(NC(=O)NC(CCC(=O)O)C(=O)O)C(=O)O)CC2)CCN(CC(=O)[O-])CC1.[227Th+4] [Example 1-B-227Th, [^227Th]Thorium (3S,10S,14S)-3-[(naphthalen-2-yl)methyl]-1,4,12-trioxo-1-{(1r,4S)-4-[(2-{4,7,10-tris[(carboxy-kappaO)methyl]-1,4,7,10-tetraazacyclododecan-1-yl-kappa^4N^1,N^4,N^7,N^10}acetamido)methyl]cyclohexyl}-2,5,11,13-tetraazahexadecane-10,14,16-tricarboxylate]
Th-227 in Blood ([1]; 24 h, 500 kBq/kg, study b2999): 0.01 % ID Th-227/g organ
Th-227 in Femur and tibia ([1]; 24 h, 500 kBq/kg, study b2999): 0.23 % ID Th-227/g organ
Th-227 in Kidneys ([1]; 24 h, 500 kBq/kg, study b2999): 26.81 % ID Th-227/g organ
Th-227 in Liver ([1]; 24 h, 500 kBq/kg, study b2999): 0.18 % ID Th-227/g organ
Th-227 in Salivary gland ([1]; 24 h, 500 kBq/kg, study b2999): 1.24 % ID Th-227/g organ
Th-227 in Spleen ([1]; 24 h, 500 kBq/kg, study b2999): 0.33 % ID Th-227/g organ
Th-227 in Tumor ([1]; 24 h, 500 kBq/kg, study b2999): 14.45 % ID Th-227/g organ
Th-227 in prostate ([1]; 24 h, 500 kBq/kg, study b2999): 0.00 % ID Th-227/g organ
Th-227 in Blood ([1]; 24 h, 1500 kBq/kg): 0.02% ID Th-227/g organ
Th-227 in Liver ([1]; 24 h, 1500 kBq/kg): 1.05% ID Th-227/g organ
Th-227 in Spleen ([1]; 24 h, 1500 kBq/kg): 1.24% ID Th-227/g organ
Th-227 in Tumor ([1]; 24 h, 1500 kBq/kg): 9.81% ID Th-227/g organ
Th-227 in bone ([1]; 24 h, 1500 kBq/kg): 9.38% ID Th-227/g organ
Th-227 in brain ([1]; 24 h, 1500 kBq/kg): 0.00% ID Th-227/g organ
Th-227 in kidney ([1]; 24 h, 1500 kBq/kg): 11.30% ID Th-227/g organ
Th-227 in large intestine ([1]; 24 h, 1500 kBq/kg): 0.12% ID Th-227/g organ
Th-227 in lung ([1]; 24 h, 1500 kBq/kg): 0.50% ID Th-227/g organ
Th-227 in muscle ([1]; 24 h, 1500 kBq/kg): 0.16% ID Th-227/g organ
Th-227 in prostate ([1]; 24 h, 1500 kBq/kg): 0.00% ID Th-227/g organ
Th-227 in salivary glands ([1]; 24 h, 1500 kBq/kg): 0.32% ID Th-227/g organ
Th-227 in small intestine ([1]; 24 h, 1500 kBq/kg): 0.23% ID Th-227/g organ
Th-227 in Blood ([1]; 72 h, 500 kBq/kg, study b2999): 0.00 % ID Th-227/g organ
Th-227 in Femur and tibia ([1]; 72 h, 500 kBq/kg, study b2999): 0.33 % ID Th-227/g organ
Th-227 in Kidneys ([1]; 72 h, 500 kBq/kg, study b2999): 19.30 % ID Th-227/g organ
Th-227 in Liver ([1]; 72 h, 500 kBq/kg, study b2999): 0.26 % ID Th-227/g organ
Th-227 in Salivary gland ([1]; 72 h, 500 kBq/kg, study b2999): 0.73 % ID Th-227/g organ
Th-227 in Spleen ([1]; 72 h, 500 kBq/kg, study b2999): 0.92 % ID Th-227/g organ
Th-227 in Tumor ([1]; 72 h, 500 kBq/kg, study b2999): 21.94 % ID Th-227/g organ
Th-227 in prostate ([1]; 72 h, 500 kBq/kg, study b2999): 0.00 % ID Th-227/g organ
Th-227 in Blood ([1]; 96 h, 1500 kBq/kg): 0.00% ID Th-227/g organ
Th-227 in Liver ([1]; 96 h, 1500 kBq/kg): 1.56% ID Th-227/g organ
Th-227 in Spleen ([1]; 96 h, 1500 kBq/kg): 2.79% ID Th-227/g organ
Th-227 in Tumor ([1]; 96 h, 1500 kBq/kg): 10.02% ID Th-227/g organ
Th-227 in bone ([1]; 96 h, 1500 kBq/kg): 10.31% ID Th-227/g organ
Th-227 in brain ([1]; 96 h, 1500 kBq/kg): 0.00% ID Th-227/g organ
Th-227 in kidney ([1]; 96 h, 1500 kBq/kg): 1.96% ID Th-227/g organ
Th-227 in large intestine ([1]; 96 h, 1500 kBq/kg): 0.12% ID Th-227/g organ
Th-227 in lung ([1]; 96 h, 1500 kBq/kg): 0.55% ID Th-227/g organ
Th-227 in muscle ([1]; 96 h, 1500 kBq/kg): 0.08% ID Th-227/g organ
Th-227 in prostate ([1]; 96 h, 1500 kBq/kg): 0.00% ID Th-227/g organ
Th-227 in salivary glands ([1]; 96 h, 1500 kBq/kg): 0.42% ID Th-227/g organ
Th-227 in small intestine ([1]; 96 h, 1500 kBq/kg): 0.21% ID Th-227/g organ
Th-227 in Blood ([1]; 168 h, 500 kBq/kg, study b2999): 0.00 % ID Th-227/g organ
Th-227 in Femur and tibia ([1]; 168 h, 500 kBq/kg, study b2999): 0.18 % ID Th-227/g organ
Th-227 in Kidneys ([1]; 168 h, 500 kBq/kg, study b2999): 3.56 % ID Th-227/g organ
Th-227 in Liver ([1]; 168 h, 500 kBq/kg, study b2999): 0.21 % ID Th-227/g organ
Th-227 in Salivary gland ([1]; 168 h, 500 kBq/kg, study b2999): 0.00 % ID Th-227/g organ
Th-227 in Spleen ([1]; 168 h, 500 kBq/kg, study b2999): 0.31 % ID Th-227/g organ
Th-227 in Tumor ([1]; 168 h, 500 kBq/kg, study b2999): 9.80 % ID Th-227/g organ
Th-227 in prostate ([1]; 168 h, 500 kBq/kg, study b2999): 0.00 % ID Th-227/g organ
Th-227 in Blood ([1]; 336 h, 500 kBq/kg, study b2999): 0.00 % ID Th-227/g organ
Th-227 in Femur and tibia ([1]; 336 h, 500 kBq/kg, study b2999): 0.25 % ID Th-227/g organ
Th-227 in Kidneys ([1]; 336 h, 500 kBq/kg, study b2999): 0.78 % ID Th-227/g organ
Th-227 in Liver ([1]; 336 h, 500 kBq/kg, study b2999): 0.17 % ID Th-227/g organ
Th-227 in Salivary gland ([1]; 336 h, 500 kBq/kg, study b2999): 0.00 % ID Th-227/g organ
Th-227 in Spleen ([1]; 336 h, 500 kBq/kg, study b2999): 0.15 % ID Th-227/g organ
Th-227 in Tumor ([1]; 336 h, 500 kBq/kg, study b2999): 7.78 % ID Th-227/g organ
Th-227 in prostate ([1]; 336 h, 500 kBq/kg, study b2999): 0.00 % ID Th-227/g organ
Mean tumor size [2, 3]: 20 mm^2
Tumor response [2, 3]: full response
T/Carea ([2]; Example II, day 33 after start of therapy, 750 kBq/kg weekly for 5 weeks): 0.18
T/Carea ([2]; Example III, day 64 after start of therapy, single treatment 1.5 MBq/kg): 0.51
T/Carea ([2]; Example V, day 27 after start of therapy, once 750 kBq/kg): 0.29
Proliferation assay on cancer cell lines by TTCs Default Pivot #3 IC50 [kBq/mL] 22Rv1 1000cells 375kBq/nmol (mean) (22Rv1 cells): 0.71 kBq/mL
